Assay results taken from the supplement of paper PMC10307832.

Tests used:
Assay in all cases: relative viability (nuclei count vs DMSO), 5 days (fraction); higher = more cells survive
[1] = compound: CCn1c(-c2nonc2N)nc2cnc(Oc3cccc(NC(=O)c4ccc(OCCN5CCOCC5)cc4)c3)cc21 + COc1cc2c(Oc3ccc(NC(=O)C4(C(=O)Nc5ccc(F)cc5)CC4)cc3F)ccnc2cc1OCCCN1CCOCC1 [Foretinib] (partner 0.25 µM)
How it was run: (§1)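 Lung cancer cell lines, seeded in 1536-well plates, were treated the following day by pin tool with a single drug or with five library-drug doses (not always all listed) in √10 steps on top of a fixed anchor-drug dose. Cells were fixed and nuclei stained in one step after 5 days, and nuclei were counted. Relative viability is the nuclei count for treated wells divided by that for vehicle wells, reported as medians of duplicate plates.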

[2] = compound: CCn1c(-c2nonc2N)nc2cnc(Oc3cccc(NC(=O)c4ccc(OCCN5CCOCC5)cc4)c3)cc21 + Nc1nc2[nH]cc(CCc3ccc(C(=O)N[C@@H](CCC(=O)O)C(=O)O)cc3)c2c(=O)[nH]1 [Pemetrexed] (partner 0.2 µM)
How it was run: as §1

[3] = compound: N=C1NC(=O)/C(=C/c2ccc(O)cc2)S1 [Mirin] + Cc1nc(Nc2ncc(C(=O)Nc3c(C)cccc3Cl)s2)cc(N2CCN(CCO)CC2)n1 [Dasatinib] (partner 0.075 µM)
How it was run: as §1

[4] = compound: N=C1NC(=O)/C(=C/c2ccc(O)cc2)S1 [Mirin] + Nc1nc2[nH]cc(CCc3ccc(C(=O)N[C@@H](CCC(=O)O)C(=O)O)cc3)c2c(=O)[nH]1 [Pemetrexed] (partner 0.2 µM)
How it was run: as §1

Cell Line | relative viability ([1]; first compound 0.04 µM) | relative viability ([1]; first compound 0.1265 µM) | relative viability ([1]; first compound 0.4 µM) | relative viability ([1]; first compound 1.265 µM) | relative viability ([1]; first compound 4 µM) | relative viability ([2]; first compound 0.04 µM) | relative viability ([2]; first compound 0.1265 µM) | relative viability ([2]; first compound 0.4 µM) | relative viability ([2]; first compound 1.265 µM) | relative viability ([2]; first compound 4 µM) | relative viability ([3]; first compound 0.25 µM) | relative viability ([3]; first compound 0.7906 µM) | relative viability ([3]; first compound 2.5 µM) | relative viability ([3]; first compound 7.906 µM) | relative viability ([3]; first compound 25 µM) | relative viability ([4]; first compound 0.25 µM) | relative viability ([4]; first compound 0.7906 µM) | relative viability ([4]; first compound 2.5 µM) | relative viability ([4]; first compound 7.906 µM) | relative viability ([4]; first compound 25 µM)
201T | 1.28 | 1.11 | 1.05 | 0.555 | 0.598 | 0.356 | 0.347 | 0.343 | 0.263 | 0.303 | 0.595 | 0.636 | 0.545 | 0.474 | 0.598 | 0.307 | 0.309 | 0.337 | 0.336 | 0.302
A549 | 1.19 | 0.985 | 1.06 | 0.246 | 0.12 |  |  |  |  |  |  |  |  |  |  |  |  |  |  | 
A-427 | 1.12 | 0.947 | 1.14 | 1.02 | 1.21 | 0.876 | 0.708 | 0.529 | 0.228 | 0.318 | 0.766 |  | 0.78 | 0.714 | 0.632 | 1 | 0.957 | 1.02 | 0.991 | 0.934
ABC-1 | 0.804 | 1.29 | 1.15 | 0.802 | 0.417 |  |  |  |  |  | 0.682 | 0.525 | 0.62 | 0.536 | 0.375 |  |  |  |  | 
BEN | 0.668 | 0.449 | 0.338 | 0.346 | 0.351 | 0.725 | 0.647 | 0.395 | 0.412 | 0.534 | 0.321 | 0.315 | 0.308 | 0.305 | 0.246 | 0.661 | 0.779 | 0.799 | 0.667 | 0.581
CAL-12T | 1.42 | 1.3 | 1.28 | 0.793 | 0.51 | 1.81 | 1.38 | 1.39 | 1.04 | 0.996 | 0.489 |  | 0.503 | 0.347 | 0.28 | 1.15 | 1.11 | 1.15 | 1.29 | 1.37
COR-L23 | 0.91 | 0.778 | 0.569 | 0.182 | 0.176 | 0.211 | 0.19 | 0.194 | 0.164 | 0.123 | 0.55 | 0.563 | 0.534 | 0.553 | 0.524 | 0.2 | 0.204 | 0.209 | 0.187 | 0.204
COR-L 105 | 1.25 | 1 | 0.874 | 0.575 | 0.308 | 1.13 | 0.965 | 1.09 | 0.615 | 0.507 | 0.347 | 0.328 | 0.382 | 0.288 | 0.261 | 1.08 | 1.21 | 1.11 | 1.11 | 1.07
Calu-6 | 1.03 | 0.832 | 0.84 | 0.568 | 0.507 |  |  |  |  |  |  |  |  |  |  |  |  |  |  | 
ChaGo-K-1 | 0.97 | 0.942 | 0.908 | 0.769 | 0.856 | 0.263 | 0.25 | 0.238 | 0.235 | 0.239 | 0.504 | 0.575 | 0.541 | 0.542 | 0.39 | 0.263 | 0.252 | 0.255 | 0.259 | 0.256
EBC-1 | 0.0933 | 0.0951 | 0.0949 | 0.0808 | 0.0597 |  |  |  |  |  |  |  |  |  |  |  |  |  |  | 
EKVX | 0.889 | 0.686 | 0.708 | 0.445 | 0.735 | 0.516 | 0.371 | 0.346 | 0.359 | 0.313 | 0.671 |  | 0.565 | 0.494 | 0.564 | 0.379 | 0.318 | 0.397 | 0.502 | 0.346
EMC-BAC-2 | 0.988 | 1 | 0.973 | 0.644 | 0.565 | 0.419 | 0.377 | 0.298 | 0.298 | 0.311 | 0.328 | 0.324 | 0.349 | 0.271 | 0.249 | 0.475 | 0.431 | 0.452 | 0.375 | 0.41
EPLC-272H | 0.829 | 0.766 | 0.753 | 0.74 | 0.716 | 0.392 | 0.328 | 0.253 | 0.239 | 0.119 | 0.416 |  | 0.413 | 0.301 | 0.232 | 0.371 | 0.307 | 0.309 | 0.323 | 0.192
H3255 | 1.22 | 0.834 | 0.679 | 0.668 | 0.642 | 0.528 | 0.512 | 0.503 | 0.432 | 0.431 | 0.383 | 0.315 | 0.347 | 0.275 | 0.381 | 0.525 | 0.605 | 0.626 | 0.54 | 0.571
HARA | 1.13 | 1.09 | 0.906 | 0.939 | 0.883 | 0.211 | 0.233 | 0.205 | 0.181 | 0.212 | 0.194 |  | 0.222 | 0.247 | 0.195 | 0.235 |  | 0.236 | 0.227 | 0.293
HCC-15 | 1.13 | 0.951 | 0.998 |  | 0.906 | 0.229 | 0.214 | 0.217 | 0.197 | 0.205 | 0.608 | 0.655 | 0.599 | 0.632 | 0.404 | 0.217 | 0.233 | 0.218 | 0.196 | 0.203
HCC-44 |  |  |  |  |  | 0.62 | 0.652 | 0.547 | 0.678 | 0.425 |  |  |  |  |  | 0.604 | 0.835 | 0.677 | 0.633 | 0.694
HCC-78 | 0.596 | 0.584 |  | 0.64 | 0.713 | 0.959 | 0.847 |  | 0.929 | 0.951 | 0.361 | 0.283 | 0.577 | 0.374 | 0.31 | 0.952 | 0.882 | 0.882 | 0.903 | 0.871
HCC-366 | 0.946 | 1 | 0.907 | 0.937 | 0.968 | 0.166 | 0.173 | 0.131 | 0.0447 | 0.0523 | 0.677 |  | 0.624 | 0.588 | 0.486 | 0.178 | 0.251 | 0.177 | 0.167 | 0.218
